According to patent US4758566A, “2-(1-piperazinyl)-4-substituted phenylquinoline derivatives, processes for the preparation thereof, and pharmaceutical composition containing the same” (Dainippon Pharmaceutical Co., Ltd., priority 1984, dated 1988):
Counter-ions that a name gives are not always drawn.

Columns and labels:
[1] = U.S. Pat. No. 4,237,135; cited from earlier work
[2] = U.S. Pat. No. 4,237,135; cited from earlier work; remark: listed apart in the source
[3] = U.S. Pat. No. 4,237,135; cited from earlier work; remark: listed apart in the source
[4] = test system: ulceration induced by pylorus-ligation (Shay ulcer) in rats; assay: Effect on the ulceration induced by pylorus-ligation (Shay ulcer) in rats, Test 3; type: in vivo, rat (male Wistar); conditions: rat; for Ulcer index: index of 0 to 5
Description: Effect on the ulceration induced by pylorus-ligation (Shay ulcer) in rats […] The portion between pylorus and duodenum of each rat was ligated under ether anesthesia according to the method of Shay et al. […] Each of the animals was then allowed to stand abstained from food and water in a cage. After 18 hours, the animals were sacrificed under ether anesthesia, and the stomachs were removed and cut along the greater curvature. […] 0: no lesion 1: hemorrhage or erosion […] The inhibitory rate was determined by comparing the ulcer index in drug-treated groups with that in the control group. […] Test compounds were administered orally 30 minutes before the ligation. In the control group, a vehicle (a 0.5% tragacanth solution) was administered orally.

Male ddY mice = assay: Acute toxicity, Test 5; type: in vivo, mouse (male ddY); conditions: 7 days; for Number of dead animals/number of used animals: mouse
Description: Male ddY mice weighing 20 g to 25 g were used in groups of 10 animals each. Test compounds, dissolved or suspended in a 0.5% tragacanth solution, were orally administered at a prescribed dose to the animals.

[5] = test system: ulceration induced by ethanol in rats; assay: Effect on the ulceration induced by ethanol in rats (gastric cytoprotection activity), Test 1; type: in vivo, rat (male Wistar)
Description: Effect on the ulceration induced by ethanol in rats (gastric cytoprotection activity) This test was carried out according to the method of Robert [cf. […] Male Wistar rats weighing 190 g to 200 g were fasted for 24 hours and then given orally 1 ml of absolute ethanol. After 1 hour, the animals were sacrificed under ether anesthesia, and the stomachs were removed and cut along the greater curvature. The length (mm) of each lesion in the glandular portion was measured using a dissecting microscope (×12). The sum of the length (mm) of each lesion in a stomach was indicated as an ulcer index. The inhibitory rate was determined by comparing the ulcer index in drug-treated groups with that in control group. Test compounds were administered orally 30 minutes before the administration of ethanol. In the control group, a vehicle (a 0.5% tragacanth solution) was administered orally.

[6] = test system: hypothermia induced by reserpine; assay: Antireserpine activity (antagonistic effect on hypothermia induced by reserpine), Test 4; type: in vivo, mouse (male ddY); conditions: mouse
Description: Antireserpine activity (antagonistic effect on hypothermia induced by reserpine)
This test was carried out according to the method of Askew [cf. Life Sci., 2, 725 (1963)].
Male ddY mice weighing 22 g to 27 g were used in groups of 5 animals each. Test compounds were administered orally to the animals, and immediately 5 mg/kg of reserpine was injected intraperitoneally. Rectal temperature of each mouse was measured 4 hours later with a thermistor (Shibaura Electric, BMG III-130). The inhibitory rate was determined by comparing the fall of rectal temperature in drug-treated groups with that in control group. In the control group, a vehicle (a 0.5% tragacanth solution) was administered orally.

[7] = test system: ulceration induced by exposure to stress (restraint and water immersion) in rats; assay: Effect on the ulceration induced by exposure to stress (restraint and water immersion) in rats, Test 2; type: in vivo, rat (male Wistar); conditions: for inhibition in vivo at 10 mg/kg / Ulcer index: stress-induced ulcer
Description: Effect on the ulceration induced by exposure to stress (restraint and water immersion) in rats The effect evaluated by this test is considered to be fairly well correlative to inhibitory effect on gastric acid secretion. Male Wistar rats weighing about 200 g were used in groups of 5 animals each. According to the method of Takagi et al. [cf. Japan. […] After 20 hours, the animals were taken out from the water bath and sacrificed under ether anesthesia, and the stomachs were removed. The stomach was inflated with 13 ml of physiological saline and placed in a 5% formalin solution for 5 minutes. After washing with physiological saline, the stomach was cut along the greater curvature and the length (mm) of each lesion in the glandular portion was measured using a dissecting microscope (×12). The sum of the length (mm) of each lesion in a stomach was indicated as an ulcer index. The inhibitory rate was determined by comparing the ulcer index in drug-treated groups with that in control group. Test compounds were administered orally 30 minutes before the immersion. In the control group, a vehicle (a 0.5% tragacanth solution) was administered orally.

[8] = ethanol-induced ulcer, rat, 10 mg/kg p.o.
[9] = po, 1 h, ethanol-induced ulcer, rat, 10 mg/kg p.o., read-out: Inhibitory rate
[10] = po, 20 h, rat, 10 mg/kg p.o., read-out: Inhibitory rate

CCN1CCN(c2cc(-c3ccccc3)c3ccccc3n2)CC1 [2-(4-ethyl-1-piperazinyl)-4-phenylquinoline]
antireserpine activity [1]: have an antireserpine activity
antitremorine activity [2]: have also antitremorine activity
inhibitory effect on spontaneous locomotor activity [3]: inhibitory effect on spontaneous locomotor activity

Cl.Cl.OCCN1CCN(c2cc(-c3ccc(F)cc3)c3ccccc3n2)CC1 [A, 2-[4-(2-hydroxyethyl)-1-piperazinyl]-4-(4-fluorophenyl)quinoline dihydrochloride]
Inhibitory rate ([4]; Shay ulcer, 10 mg/kg p.o.): 33.3%
Ulcer index ([4]; Shay ulcer, 10 mg/kg p.o.): 2.4 ± 0.4
Inhibitory rate ([4]; Shay ulcer, 20 mg/kg p.o.): 44.4%
Ulcer index ([4]; Shay ulcer, 20 mg/kg p.o.): 2 ± 0.8
Inhibitory rate ([4]; Shay ulcer, 50 mg/kg p.o.): 61.1%
Ulcer index ([4]; Shay ulcer, 50 mg/kg p.o.): 1.4 ± 0.2
Inhibitory rate ([4]; Shay ulcer, 100 mg/kg p.o.): 66.7%
Ulcer index ([4]; Shay ulcer, 100 mg/kg p.o.): 1.2 ± 0.2
ED50 ([4]; po, 18 h, Shay ulcer, graphic method, read-out: ED50 (dose required to inhibit ulcer index by 50%)): 26.5 mg/kg
potency relative to cimetidine in preventive effect on Shay ulcer ([4]; p.o., vs cimetidine): about 10 times
death of mouse (in words) (Male ddY mice; 250 mg/kg p.o.): death of mouse was not observed
Number of dead animals/number of used animals (Male ddY mice; 250 mg/kg p.o.): 0/10
Number of dead animals/number of used animals (Male ddY mice; 500 mg/kg p.o.): 2/10
Number of dead animals/number of used animals (Male ddY mice; 1000 mg/kg p.o.): 5/10
Ulcer index ([5]; ethanol-induced ulcer, rat, 5 mg/kg p.o.): 31.6 ± 11.3 mm
Ulcer index [5, 8]: 9.8 ± 2.9 mm
Ulcer index ([5]; ethanol-induced ulcer, rat, 20 mg/kg p.o.): 9.2 ± 4.1 mm
inhibition in vivo at 5 mg/kg ([5]; po, 1 h, ethanol-induced ulcer, rat, 5 mg/kg p.o., read-out: Inhibitory rate): 33.9%
inhibition in vivo at 10 mg/kg [5, 9]: 79.5%
inhibition in vivo at 20 mg/kg ([5]; po, 1 h, ethanol-induced ulcer, rat, 20 mg/kg p.o., read-out: Inhibitory rate): 80.8%
Inhibitory rate ([6]; 50 mg/kg p.o.): 20.6%
Inhibitory rate ([6]; 100 mg/kg p.o.): 65.5%
inhibition in vivo at 10 mg/kg [7, 10]: 69.2%
Ulcer index ([7]; rat, 10 mg/kg p.o.): 7.4 ± 3.6 mm

O=C(O)/C=C\C(=O)O.O=C(O)/C=C\C(=O)O.OCCCN1CCN(c2cc(-c3ccc(F)cc3)c3ccccc3n2)CC1 [B, 2-[4-(3-hydroxypropyl)-1-piperazinyl]-4-(4-fluorophenyl)quinoline dimaleate]
Ulcer index [5, 8]: 21.9 ± 12.1 mm
inhibition in vivo at 10 mg/kg [5, 9]: 69.2%
Inhibitory rate ([6]; 100 mg/kg p.o.): 59.4%
inhibition in vivo at 10 mg/kg [7, 10]: 61.7%
Ulcer index ([7]; rat, 10 mg/kg p.o.): 7.4 ± 1.2 mm

Clc1ccc(-c2cc(N3CCNCC3)nc3ccccc23)cc1.O=C(O)/C=C\C(=O)O [C, 2-(1-piperazinyl)-4-(4-chlorophenyl)quinoline maleate]
Ulcer index [5, 8]: 4.5 ± 3.7 mm
inhibition in vivo at 10 mg/kg [5, 9]: 87.4%
Inhibitory rate ([6]; 100 mg/kg p.o.): 64.3%
inhibition in vivo at 10 mg/kg [7, 10]: 65.6%
Ulcer index ([7]; rat, 10 mg/kg p.o.): 8.5 ± 2.9 mm

CN/C(=N/CCSCc1nc[nH]c1C)NC#N [Cimetidine, reference compound]
Inhibitory rate ([4]; Shay ulcer, 50 mg/kg p.o.): 0%
Ulcer index ([4]; Shay ulcer, 50 mg/kg p.o.): 3.3 ± 0.3
Inhibitory rate ([4]; Shay ulcer, 100 mg/kg p.o.): 9.1%
Ulcer index ([4]; Shay ulcer, 100 mg/kg p.o.): 3 ± 0.5
Inhibitory rate ([4]; Shay ulcer, 200 mg/kg p.o.): 42.4%
Ulcer index ([4]; Shay ulcer, 200 mg/kg p.o.): 1.9 ± 0.4
Inhibitory rate ([4]; Shay ulcer, 500 mg/kg p.o.): 75.8%
Ulcer index ([4]; Shay ulcer, 500 mg/kg p.o.): 0.8 ± 0.2
inhibition in vivo at 100 mg/kg ([5]; Rattus norvegicus, po, 1 h, read-out: Inhibitory rate): 25.1%
Ulcer index ([5]; ethanol-induced ulcer, rat, 100 mg/kg p.o.): 23.9 ± 8.2 mm
protective effect on the ethanol-induced ulceration (in words) ([5]; rat, 100 mg/kg p.o.): did not exhibit any significant protective effect
inhibition in vivo at 20 mg/kg ([7]; Rattus norvegicus, po, 20 h, read-out: Inhibitory rate): 39.1%
preventive effect on the stress-induced ulceration (in words) ([7]; rat, 20 mg/kg p.o.): did not exhibit any significant effect
Ulcer index ([7]; rat, 20 mg/kg p.o.): 15.1 ± 2.9 mm

CCN1CCN(c2cc(-c3ccc(Cl)cc3)c3ccccc3n2)CC1.O=C(O)/C=C\C(=O)O.O=C(O)/C=C\C(=O)O [D, 2-(4-ethyl-1-piperazinyl)-4-(4-chlorophenyl)quinoline dimaleate]
Ulcer index [5, 8]: 8.6 ± 4.5 mm
inhibition in vivo at 10 mg/kg [5, 9]: 89%
Inhibitory rate ([6]; 100 mg/kg p.o.): 45.2%
inhibition in vivo at 10 mg/kg [7, 10]: 54%
Ulcer index ([7]; rat, 10 mg/kg p.o.): 13.4 ± 2.1 mm

Cc1ccc(-c2cc(N3CCN(CCO)CC3)nc3ccccc23)cc1.O=C(O)/C=C\C(=O)O.O=C(O)/C=C\C(=O)O [E, 2-[4-(2-hydroxyethyl)-1-piperazinyl]-4-(4-methylphenyl)quinoline dimaleate]
Ulcer index [5, 8]: 12.0 ± 2.3 mm
inhibition in vivo at 10 mg/kg [5, 9]: 64.4%
Inhibitory rate ([6]; 100 mg/kg p.o.): 51.3%
inhibition in vivo at 10 mg/kg [7, 10]: 69.7%
Ulcer index ([7]; rat, 10 mg/kg p.o.): 11.8 ± 4.6 mm

O=C(O)/C=C\C(=O)O.O=C(O)/C=C\C(=O)O.OCCN1CCN(c2cc(-c3ccc(C(F)(F)F)cc3)c3ccccc3n2)CC1 [F, 2-[4-(2-hydroxyethyl)-1-piperazinyl]-4-(4-trifluoromethylphenyl)quinoline dimaleate]
Ulcer index [5, 8]: 6.7 ± 1.8 mm
inhibition in vivo at 10 mg/kg [5, 9]: 87.2%
inhibition in vivo at 10 mg/kg [7, 10]: 41.6%
Ulcer index ([7]; rat, 10 mg/kg p.o.): 19.8 ± 2.0 mm

O=C(O)/C=C\C(=O)O.O=C(O)/C=C\C(=O)O.OCCN1CCN(c2cc(-c3ccc(Cl)cc3)c3ccccc3n2)CC1 [G, 2-[4-(2-hydroxyethyl)-1-piperazinyl]-4-(4-chlorophenyl)quinoline dimaleate]
Ulcer index [5, 8]: 10.8 ± 6.3 mm
inhibition in vivo at 10 mg/kg [5, 9]: 76.1%
inhibition in vivo at 10 mg/kg [7, 10]: 36.4%
Ulcer index ([7]; rat, 10 mg/kg p.o.): 18.5 ± 6.9 mm

FC(F)(F)c1cccc(-c2cc(N3CCNCC3)nc3ccccc23)c1.O=C(O)/C=C\C(=O)O.O=C(O)/C=C\C(=O)O [H, 2-(1-piperazinyl)-4-(3-trifluoromethylphenyl)quinoline dimaleate]
Ulcer index [5, 8]: 7.1 ± 1.9 mm
inhibition in vivo at 10 mg/kg [5, 9]: 84.3%
inhibition in vivo at 10 mg/kg [7, 10]: 4.3%
Ulcer index ([7]; rat, 10 mg/kg p.o.): 24.7 ± 3.6 mm

CCN1CCN(c2cc(-c3cccc(C(F)(F)F)c3)c3ccccc3n2)CC1.O=C(O)/C=C\C(=O)O.O=C(O)/C=C\C(=O)O [I, 2-(4-ethyl-1-piperazinyl)-4-(3-trifluoromethylphenyl)quinoline dimaleate]
Ulcer index [5, 8]: 16.5 ± 3.9 mm
inhibition in vivo at 10 mg/kg [5, 9]: 63.5%
inhibition in vivo at 10 mg/kg [7, 10]: 20.1%
Ulcer index ([7]; rat, 10 mg/kg p.o.): 27.1 ± 2.2 mm

CN(C)CCCN1c2ccccc2CCc2ccccc21 [Imipramine hydrochloride, reference compound]
Inhibitory rate ([6]; 10 mg/kg p.o.): 29.5%
Inhibitory rate ([6]; 30 mg/kg p.o.): 69.3%
Inhibitory rate ([6]; 100 mg/kg p.o.): 94.5%

O=C(O)/C=C\C(=O)O.O=C(O)/C=C\C(=O)O.OCCN1CCN(c2cc(-c3cccc(C(F)(F)F)c3)c3ccccc3n2)CC1 [J, 2-[4-(2-hydroxyethyl)-1-piperazinyl]-4-(3-trifluoromethylphenyl)quinoline dimaleate]
Ulcer index [5, 8]: 9.0 ± 4.2 mm
inhibition in vivo at 10 mg/kg [5, 9]: 74.8%
inhibition in vivo at 10 mg/kg [7, 10]: -2.7%
Ulcer index ([7]; rat, 10 mg/kg p.o.): 34.8 ± 3.9 mm
